Measurements reported in patent US20100074932A1, “ANTIMICROBIAL COMPOSITIONS CONTAINING GALLIUM” (priority 2006, published 2010).

Legend:
[1] = on exposure of the coating to body fluid, based on relative solubilities in water
From the text: The differences in the solubility of the different salts in the composition will result in different and prolonged rates of release of the oligodynamic gallium in the coating composition when a device coated with the composition is exposed to body fluid. The amount of water in the final coating solution is about 30% of the total solvent weight.

Escherichia coli 6418 [2] = test: Microbial colonization of hydrogel coated latex foley catheter surface, plate counting; format: cell-based; conditions: 0.2 mM gallium nitrate, 48 hours, compared to positive control with no gallium, FIG. 3
Procedure: After 48 hours, catheter pieces were removed, microorganisms were recovered from the catheter surface and enumerated by plate counting methods.

Escherichia coli 6418 [3] = test: Biofilm formation on catheter after two hours pre-attachment of bacteria, plate counting; format: cell-based; conditions: 0.2 mM gallium nitrate, 48 hours, compared to positive control with no gallium, FIG. 4

| SMILES | order of release from the coating composition [1] | microbial colonization of the catheter surface (Escherichia coli 6418 [2]) | biofilm formation (Escherichia coli 6418 [3]) |
| --- | --- | --- | --- |
| CC(=O)[O-].CC(=O)[O-].CC(=O)[O-].[Ga+3] [gallium acetate] | Then |  |  |
| [I][Ga]([I])[I] [gallium iodide] | lastly |  |  |
| O=[N+]([O-])[O-].O=[N+]([O-])[O-].O=[N+]([O-])[O-].[Ga+3] [gallium nitrate] |  | reduced microbial colonization | reduced biofilm formation |
